Values of other authors, collected in patent US20180311201A1, “ORAL PHARMACEUTICAL COMPOSITION COMPRISING OTILONIUM BROMIDE AND SIMETHICONE WITH CERTAIN BULK DENSITY AND IMPROVED DISSOLUTION CHARACTERISTICS” (priority 2015, published 2018).

Solubility in dimethyl sulfoxide (dimethyl sulfoxide): > 25 mg/mL
Solubility in ethanol (ethanol): soluble
Solubility in water (water): 12 mg/mL
Compound: CCCCCCCCOc1ccccc1C(=O)Nc1ccc(C(=O)OCC[N+](C)(CC)CC)cc1.[Br-] [Otilonium bromide, N,N-Diethyl-N-methyl-2-(4-[2-(octyloxy)benzamido]benzoyloxy)ethanaminium bromide]
